Experimental findings from patent publication US10610524B2, “Cellular hydration compositions” (Eastpond Laboratories Limited, priority 2010, dated 2020) are described below.

Data set [1] in a line: NIR spectroscopy of water bonding with cyclodextrin additives. Format: physicochemical. How it is done: Hydration bond energies in pure waters and solutions of the same waters containing cyclodextrin compounds were assayed using IR spectroscopy in the near and middle infrared ranges. To record linear signals throughout an entire wavelength range, attenuation from water absorbance was minimized with a short optical length cuvette.
NIR range spectra were registered on a FOSS NIR Systems, Inc. 6500 spectrometer and Sample Transport Module (STM) using a 1 mm-es cuvette. […]
Three samples of water were used in the present study. A first water sample (USA I) was obtained from the U.S. and was purified by reverse osmosis, carbon filtration, ultraviolet light exposure, membrane filtration to 0.2 micron absolute, and ozonation. A second water sample (USA II) was also obtained from the U.S. A third water sample (BP I) was obtained from Budapest, Hungary.
The following cyclodextrins were added to the above described water samples at a concentration range of 0.1%-5% w/v: • α-cyclodextrin (αCD also denoted as ACD), Lot. No. CYL-2322. • β-cyclodextrin (βCD also denoted as BCD). Lot. No. CYL-2518/2. • γ-cyclodextrin (γCD also denoted as GCD), Lot. No. CYL-2323. • 2-hydroxypropyl-β-cyclodextrin (HPβCD, HPBCD), DS*=3.5, Lot. No. CYL-2232. • 2-hydroxypropyl-γ-cyclodextrin (HPCD, HPGCD), DS*=4.8, Lot. No. CYL-2258. • carboxymethyl-β-cyclodextrin (CMBCD), Lot. No. CYL-2576. • quaternary-ammonium-β-cyclodextrin (QABCD).

The subject of a further data set is C. elegans nematodes. The experiment in a line: Lifespan of C. elegans in hydration modified water media. The settings on record: for Animals alive: USA I water; for effect on C. elegans survival: added to culture media, result in words. It counts as in vivo. The protocol:
C. elegans nematodes were grown in petri-type dishes containing normal nutrient liquid media prepared alternatively with USA I water (described in Example 2) lacking any further additive component (control) or the same water supplemented with a parent α-, β-, or γ-cyclodextrin, and/or a bioactive agent, as an active component of cellular hydration. Fifty±3 worms were transferred to each dish. Each condition was repeated in triplicate. Experiments were repeated for USA II and BP I waters described in Example 2. A. Addition of parent α-, β- and γ-cyclodextrins. B. Addition of L-arginine and nicotinamide. C. Addition of inclusion complexes of cyclodextrins with L-arginine and nicotinamide.

The subject of data set [2] is Wheat seeds (Triticum aestivum). The experiment in a line: Wheat seed germination kinetics in additive-modified water. It counts as in vivo. The settings on record: additive 0.5% w/v in USA I water. The protocol: Wheat seeds (Triticum aestivum) were germinated using USA I, USA II, and BP I waters described for Example 2. Germination rate using un-supplemented (control) water was compared to that with the same water variously supplemented with a cyclodextrin component, and/or a bioactive agent, as an active component of cellular hydration. For each condition, ten seeds were placed in continuous water contact in a Petri-type dish kept at 25 C in 12 hr light/dark cycles. Photometric images were recorded on days 1 to 6 after seeding. The percentage of seeds germinated was calculated and compared as a function of time and of the applied additive concentrations.
Water samples for seed germination were used alone with no additive, or containing cyclodextrins, or containing clathrate inclusion complexes of cyclodextrin with L-arginine or with nicotinamide (both obtained from Sigma Chemical Co.; St. Louis, Mo.), or with L-carnitine (from Lonza AG; Switzerland). […] Additive solutions were prepared fresh on the day of germination start.
Parent cyclodextrins α-cyclodextrin (ACD), β-cyclodextrin (BCD), and γ-cyclodextrin (GCD), were obtained from Wacker Chemie (Munich, Germany). The following derivatized cyclodextrins were obtained from Cyclolab Ltd. (Budapest, Hungary): hydroxypropylated-beta-cyclodextrin (DS˜3)(HPBCD), carboxymethylated-β-cyclodextrin (DS˜3.5)(CMBCD), 2-hydroxy-3-N,N,N-trimethylamino)propyl-β-cyclodextrin chloride (DS˜3.6)(QABCD).
Germination kinetics in control and additive-modified water under identical conditions were quantified as the percentage of the seeds having a sprout. Each determination consisted of 100 seeds for each parameter. Results are reported in Table 1, below, and in FIGS. 11-13.

Setting [3] is: wavelength region 900-1200 nm, FIG. 7.
Setting [4] is: life span 10 days, derivatized cyclodextrin 0.1% w/v in media, Table 4.
The mark [5] stands for this setting: life span 15 days, derivatized cyclodextrin 0.1% w/v in media, Table 4.
[6] abbreviates: life span 18 days, derivatized cyclodextrin 0.1% w/v in media, Table 4.
Where [7] appears, read: life span 10 days, parent cyclodextrin 0.1% w/v in media, Table 3.
[8] abbreviates: life span 15 days, parent cyclodextrin 0.1% w/v in media, Table 3.
[9] abbreviates: life span 18 days, parent cyclodextrin 0.1% w/v in media, Table 3.

“2-hydroxy-3-N,N,N-trimethylamino)propyl-β-cyclodextrin chloride [Quaternaryammonium-β-Cyclodextrin]”: the “water-bond interactions, second-derivative NIR spectra” value (“water-bond interactions” for short) in data set [1] (1200-1500 nm, FIG. 8) is recorded as “significantly modified”; in data set [1] (1620-1710 nm, FIG. 9), “significantly modified”; in data set [1] (2170-2370 nm, FIG. 10), “further significantly modified”; in data set [1] (setting [3]) it was “significantly modified”. Besides, the “modified micro-structure of hydrogen bonds in bulk water (spectral changes), ranking of effect” value in data set [1] (among cyclodextrin-treated water samples, FIGS. 9 and 10) is recorded as “largest”. For the same compound, the Animals alive is on record as 98 % of initial in the data set on C. elegans nematodes (setting [4]), 13 % of initial in the data set with C. elegans nematodes (setting [5]) and 2 % of initial with C. elegans nematodes (setting [6]).

In the case of `CC(O)COC[C@H]1O[C@@H]2O[C@H]3[C@H](O)[C@@H](O)[C@@H](O[C@H]4[C@H](O)[C@@H](O)[C@@H](O[C@H]5[C@H](O)[C@@H](O)[C@@H](O[C@H]6[C@H](O)[C@@H](O)[C@@H](O[C@H]7[C@H](O)[C@@H](O)[C@@H](O[C@H]8[C@H](O)[C@@H](O)[C@@H](O[C@H]1[C@H](O)[C@H]2O)O[C@@H]8COCC(C)O)O[C@@H]7COCC(C)O)O[C@@H]6COCC(C)O)O[C@@H]5COCC(C)O)O[C@@H]4COCC(C)O)O[C@@H]3COCC(C)O` (stereo partly drawn) [HP-β-Cyclodextrin, 2-hydroxypropyl-β-cyclodextrin], the “water-bond interactions” value in data set [1] (1200-1500 nm, FIG. 8) is recorded as “significantly modified”; in data set [1] (1620-1710 nm, FIG. 9), “significantly modified”; in data set [1] (2170-2370 nm, FIG. 10), “significantly modified”; in data set [1] (setting [3]) it was “further significantly modified”. In addition, the Animals alive in the data set with C. elegans nematodes (setting [4]) is 96 % of initial; in the data set with C. elegans nematodes (setting [5]), 17 % of initial; in the data set with C. elegans nematodes (setting [6]) it was 0 % of initial.

In the case of `N=C(N)NCCC[C@H](N)C(=O)O` [L-Arg, L-arginine, reference compound], the “effect on C. elegans survival” value in the data set on C. elegans nematodes is recorded as “little effect”. Moreover, the “wheat seed germination rate” value in data set [2] (day 0, Table 1) was 0 percentage of total seeds; in data set [2] (day 1, Table 1) it was 0 percentage of total seeds; in data set [2] (day 2, Table 1), 30 percentage of total seeds; in data set [2] (day 3, Table 1), 45 percentage of total seeds; in data set [2] (day 4, Table 1), 60 percentage of total seeds.

As for `NC(=O)c1cccnc1` [nicotinamide, reference compound], in the data set with C. elegans nematodes, the “effect on C. elegans survival” value is “little effect”. In addition, the “wheat seed germination rate” value in data set [2] (day 0, Table 2) is on record as 0 percentage of the seeds; in data set [2] (day 1, Table 2) it was 0 percentage of the seeds; in data set [2] (day 2, Table 2), 4 percentage of the seeds; in data set [2] (day 3, Table 2), 10 percentage of the seeds; in data set [2] (day 4, Table 2), 60 percentage of the seeds.

Turning to `OC[C@H]1O[C@@H]2O[C@H]3[C@H](O)[C@@H](O)[C@@H](O[C@H]4[C@H](O)[C@@H](O)[C@@H](O[C@H]5[C@H](O)[C@@H](O)[C@@H](O[C@H]6[C@H](O)[C@@H](O)[C@@H](O[C@H]7[C@H](O)[C@@H](O)[C@@H](O[C@H]1[C@H](O)[C@H]2O)O[C@@H]7CO)O[C@@H]6CO)O[C@@H]5CO)O[C@@H]4CO)O[C@@H]3CO` [α-Cyclodextrin, α-cyclodextrin], the figures for the Animals alive in the data set with C. elegans nematodes (setting [7]), in the data set on C. elegans nematodes (setting [8]) and with C. elegans nematodes (setting [9]) were 100 % of initial, 20 % of initial and 2 % of initial, respectively. Also, the “wheat seed germination rate” value is recorded as 0 percentage of total seeds in data set [2] (day 0, Table 1); 0 percentage of the seeds in data set [2] (day 0, Table 2); 0 percentage of total seeds in data set [2] (day 1, Table 1); 11 percentage of the seeds in data set [2] (day 1, Table 2); 48 percentage of total seeds in data set [2] (day 2, Table 1); 18 percentage of the seeds in data set [2] (day 2, Table 2). Also, the “wheat seed germination rate” value in data set [2] (day 3, Table 1) is listed as 70 percentage of total seeds; in data set [2] (day 3, Table 2), 68 percentage of the seeds; in data set [2] (day 4, Table 1), 85 percentage of total seeds; in data set [2] (day 4, Table 2), 92 percentage of the seeds.

For `OC[C@H]1O[C@@H]2O[C@H]3[C@H](O)[C@@H](O)[C@@H](O[C@H]4[C@H](O)[C@@H](O)[C@@H](O[C@H]5[C@H](O)[C@@H](O)[C@@H](O[C@H]6[C@H](O)[C@@H](O)[C@@H](O[C@H]7[C@H](O)[C@@H](O)[C@@H](O[C@H]8[C@H](O)[C@@H](O)[C@@H](O[C@H]1[C@H](O)[C@H]2O)O[C@@H]8CO)O[C@@H]7CO)O[C@@H]6CO)O[C@@H]5CO)O[C@@H]4CO)O[C@@H]3CO` [β-Cyclodextrin, β-cyclodextrin], the Animals alive with C. elegans nematodes (setting [7]) is given as 100 % of initial; in the data set on C. elegans nematodes (setting [8]) it was 18 % of initial; in the data set with C. elegans nematodes (setting [9]), 0 % of initial.

Regarding `OC[C@H]1O[C@@H]2O[C@H]3[C@H](O)[C@@H](O)[C@@H](O[C@H]4[C@H](O)[C@@H](O)[C@@H](O[C@H]5[C@H](O)[C@@H](O)[C@@H](O[C@H]6[C@H](O)[C@@H](O)[C@@H](O[C@H]7[C@H](O)[C@@H](O)[C@@H](O[C@H]8[C@H](O)[C@@H](O)[C@@H](O[C@H]9[C@H](O)[C@@H](O)[C@@H](O[C@H]1[C@H](O)[C@H]2O)O[C@@H]9CO)O[C@@H]8CO)O[C@@H]7CO)O[C@@H]6CO)O[C@@H]5CO)O[C@@H]4CO)O[C@@H]3CO` [γ-Cyclodextrin, γ-cyclodextrin], the values for the Animals alive with C. elegans nematodes (setting [7]), with C. elegans nematodes (setting [8]) and in the data set with C. elegans nematodes (setting [9]) were 100 % of initial, 13 % of initial and 2 % of initial, respectively.

With carboxymethyl-β-cyclodextrin, the “water-bond interactions” value in data set [1] (1200-1500 nm, FIG. 8) is recorded as “further significantly modified”; in data set [1] (1620-1710 nm, FIG. 9) it was “significantly modified”; in data set [1] (2170-2370 nm, FIG. 10) it was “significantly modified”; in data set [1] (setting [3]), “further significantly modified”. Also, the Animals alive with C. elegans nematodes (setting [4]) is 94 % of initial; in the data set with C. elegans nematodes (setting [5]), 11 % of initial; in the data set on C. elegans nematodes (setting [6]) it was 0 % of initial.
